The values below come from PMC6151550, “Inhibitory Effect of Selaginellins from Selaginella tamariscina (Beauv.) Spring against Cytochrome P450 and Uridine 5′-Diphosphoglucuronosyltransferase Isoforms on Human Liver Microsomes” (Molecules : A Journal of Synthetic Chemistry and Natural …, 2017).

Common to all, as to assay type: in vitro ADME
One experiment deals with T1, CYP2E1 (Homo sapiens, UniProt P05181).
T1 construct: the incubation mixtures containing pooled HLMs (0.25 mg/mL, H2630, Xenotech); tissue Xenotech H2630; host or cells: pooled human liver microsomes
T1 sequence (P05181 whole entry): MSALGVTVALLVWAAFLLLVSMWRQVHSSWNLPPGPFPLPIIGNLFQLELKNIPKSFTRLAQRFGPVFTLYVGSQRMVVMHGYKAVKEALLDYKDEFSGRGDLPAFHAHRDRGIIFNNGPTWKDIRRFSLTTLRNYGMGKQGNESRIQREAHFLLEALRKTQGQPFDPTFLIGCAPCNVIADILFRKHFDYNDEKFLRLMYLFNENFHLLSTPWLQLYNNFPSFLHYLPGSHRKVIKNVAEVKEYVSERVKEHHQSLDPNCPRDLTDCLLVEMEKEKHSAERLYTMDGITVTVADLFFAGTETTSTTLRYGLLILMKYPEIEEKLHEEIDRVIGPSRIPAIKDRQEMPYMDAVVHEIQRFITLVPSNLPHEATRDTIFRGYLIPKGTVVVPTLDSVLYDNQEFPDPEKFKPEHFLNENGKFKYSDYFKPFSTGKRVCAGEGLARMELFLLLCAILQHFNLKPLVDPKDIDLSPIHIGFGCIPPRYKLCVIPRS
Description: CYP2E1 inhibition (chlorzoxazone 6-hydroxylase) in human liver microsomes, substrate cocktail LC-MS/MS. Here is the method: (§1) The inhibitory effects of two selaginellins on the metabolism of ten P450 probe substrates were evaluated using previously reported method with minor modification. Phenacetin O-deethylase, coumarin 7-hydroxylase, bupropion 4-hydroxylase, amodiaquine N-deethylase, tolbutamide 4-hydroxylase, omeprazole 5-hydroxylase, dextromethorphan O-demethylase, chlorzoxazone 6-hydroxylase and midazolam 1′-hydroxylase activities were determined as probe activities for CYP1A2, CYP2A6, CYP2B6, CYP2C8, CYP2C9, CYP2C19, CYP2D6, CYP2E1 and […], respectively, using substrate cocktail incubation and tandem mass spectrometry (Table 2). Selaginellins were dissolved in methanol. The final concentrations of organic solvent (methanol) for the cocktail incubation conditions in all experiments were 1.0% (v/v). In brief, the incubation mixtures containing pooled HLMs (0.25 mg/mL, H2630, Xenotech), P450 probe substrate cocktail, and inhibitor (0, 0.5, 2, 5, 20 and 50 μM) were preincubated at 37 °C for 5 min. […] After mixing and centrifugation, aliquots were analyzed by liquid chromatography-tandem mass spectrometry (LC-MS/MS) as previous described. The CYP2J2 inhibitory effects of two selaginellins were also evaluated in pooled HLMs using previously reported method. […]

Another experiment deals with T2, CYP2C9 (Homo sapiens, UniProt P11712).
T2 construct: the incubation mixtures containing pooled HLMs (0.25 mg/mL, H2630, Xenotech); tissue Xenotech H2630; host or cells: pooled human liver microsomes
T2 sequence (P11712 whole entry): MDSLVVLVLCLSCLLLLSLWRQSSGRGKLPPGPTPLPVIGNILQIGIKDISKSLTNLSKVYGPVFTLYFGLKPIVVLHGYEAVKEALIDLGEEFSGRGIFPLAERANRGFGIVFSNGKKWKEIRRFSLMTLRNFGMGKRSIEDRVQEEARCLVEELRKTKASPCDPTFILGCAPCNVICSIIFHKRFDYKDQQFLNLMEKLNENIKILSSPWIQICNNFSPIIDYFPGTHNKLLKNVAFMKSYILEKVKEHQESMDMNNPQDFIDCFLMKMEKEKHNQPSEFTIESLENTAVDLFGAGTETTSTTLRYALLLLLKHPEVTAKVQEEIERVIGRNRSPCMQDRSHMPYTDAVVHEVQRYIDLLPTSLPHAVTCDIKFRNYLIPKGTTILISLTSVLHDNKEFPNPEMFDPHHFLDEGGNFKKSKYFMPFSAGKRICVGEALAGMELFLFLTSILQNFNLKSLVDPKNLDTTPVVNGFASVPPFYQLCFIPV
As to the kind of experiment: CYP2C9 inhibition (tolbutamide 4-hydroxylase) in human liver microsomes, substrate cocktail LC-MS/MS. The following applies: IC50 P450 isoform 2C9, pooled HLMs 0.25 mg/mL, tolbutamide 100 μM. The protocol:
as §1

Another experiment concerns the target T3, CYP2J2 (Homo sapiens, UniProt P51589).
T3 construct: from tissue; host or cells: pooled human liver microsomes
T3 sequence (P51589 1-502): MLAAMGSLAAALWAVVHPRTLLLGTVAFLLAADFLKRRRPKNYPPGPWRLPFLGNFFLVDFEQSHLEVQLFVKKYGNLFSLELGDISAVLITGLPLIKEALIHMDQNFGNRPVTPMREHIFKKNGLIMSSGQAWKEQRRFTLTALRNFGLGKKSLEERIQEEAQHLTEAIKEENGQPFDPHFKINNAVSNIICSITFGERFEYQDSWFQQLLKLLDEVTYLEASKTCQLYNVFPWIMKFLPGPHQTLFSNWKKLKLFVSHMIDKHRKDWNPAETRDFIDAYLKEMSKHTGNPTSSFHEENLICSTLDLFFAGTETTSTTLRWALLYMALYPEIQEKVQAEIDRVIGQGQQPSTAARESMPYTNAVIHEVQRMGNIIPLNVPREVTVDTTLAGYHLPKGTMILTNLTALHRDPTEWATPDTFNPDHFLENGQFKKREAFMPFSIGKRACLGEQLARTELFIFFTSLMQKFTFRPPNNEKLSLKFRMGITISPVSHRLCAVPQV
Description: CYP2J2 inhibition (astemizole O-demethylation) in pooled human liver microsomes, LC-MS/MS. The following applies: IC50 P450 isoform 2J2, pooled HLMs 0.25 mg/mL, astemizole 1.0 μM. Here is the method:
as §1

Another experiment has as its target T4, UGT1A1 (Homo sapiens, UniProt P22309).
T4 construct: from tissue; host or cells: human liver microsomes
T4 sequence (P22309 26-533): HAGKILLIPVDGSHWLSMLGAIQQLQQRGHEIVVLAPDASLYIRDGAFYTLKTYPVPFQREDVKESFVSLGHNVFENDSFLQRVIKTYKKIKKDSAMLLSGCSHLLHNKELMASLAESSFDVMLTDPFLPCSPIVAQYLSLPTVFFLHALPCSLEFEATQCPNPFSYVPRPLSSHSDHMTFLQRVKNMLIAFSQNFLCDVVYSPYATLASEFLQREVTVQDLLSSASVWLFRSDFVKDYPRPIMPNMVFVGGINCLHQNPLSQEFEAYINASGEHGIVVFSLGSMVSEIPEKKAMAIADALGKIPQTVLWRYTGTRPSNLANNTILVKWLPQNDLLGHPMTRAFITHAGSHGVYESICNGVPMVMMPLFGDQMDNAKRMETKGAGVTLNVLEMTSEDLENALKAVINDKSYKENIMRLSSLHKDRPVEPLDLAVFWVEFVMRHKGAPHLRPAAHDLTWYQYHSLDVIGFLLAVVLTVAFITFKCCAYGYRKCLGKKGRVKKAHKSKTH
As to the kind of experiment: UGT1A1 inhibition (SN-38 glucuronidation) in human liver microsomes, cocktail LC-MS/MS. The following applies: IC50 UGT isoform 1A1, HLMs 0.25 mg/mL with alamethicin, SN-38 0.5 μM. Here is the method:
The inhibitory effects of two selaginellins on the metabolism of six UGT probe substrates were evaluated using previously reported method with minor modification. In brief, HLMs (0.25 mg/mL) were activated by incubation in the presence of alamethicin (25 μg/mL) for 15 min on ice. After the addition of UGT isoform-selective substrates and selaginellins (0, 0.5, 2, 5, 20 and 50 μM) the final concentrations of organic solvent (methanol) for the cocktail incubation conditions were 1.0% (v/v). The incubation reaction mixtures were pre-incubated for 5 min. The reaction was initiated by the addition of 5 mM UDPGA and further incubated for 60 min. All reactions were terminated by adding ice-cold acetonitrile containing estrone glucuronide (IS). After mixing and centrifugation, aliquots were injected into a LC-MS/MS as described previously (Table 2). All microsomal incubations were performed in triplicate.
The IC50 values (concentration of the inhibitor causing 50% inhibition of the original enzyme activity) were calculated using WinNonlin software (Pharsight, Mountain View, CA, USA): percentage of control activity = 100 × [1 − (I/(I + IC50))], where I is the inhibitor concentration, and IC50 is the inflection point on the curve.

Each structure is given as a SMILES string. A value given as a limit tells only on which side of the number the result lay.

As for `COc1ccc(C(=C2C=CC(=O)C=C2)c2c(-c3ccc(O)cc3)ccc(CO)c2C#Cc2ccc(O)cc2)cc1` [Selaginellin M], the half-maximal inhibitory concentration (IC50) is more than 50000 nM on CYP2E1, 3900 nM against CYP2C9, 2700 nM against CYP2J2 and 1300 nM against UGT1A1.
As to `O=C1C=CC(=C(c2ccc(O)cc2)c2c(-c3ccc(O)cc3)ccc(CO)c2C#Cc2ccc(O)cc2)C=C1` [Selaginellin], the IC50 was determined as 38500 nM at CYP2E1, 1200 nM on CYP2C9, 800 nM on CYP2J2 and 1000 nM on UGT1A1.
